Experimental findings from ChEMBL document CHEMBL5236671, “Synthesis and biological evaluation of novel aromatic amide derivatives as potential BCR-ABL inhibitors” (Bioorg Med Chem Lett, 2023) are described below.

The source made the active and inactive calls. No cut-off for these calls is given here.

One may read the IC50 as the concentration at which inhibition is half-maximal.

The test system of one experiment is HL-60. As to the kind of experiment: Antitumor activity against human HL-60 cells assessed as inhibition of cell growth. It is filed as functional, cell-based.
A further experiment concerns MCF7. Description: Antitumor activity against human MCF7 cells assessed as inhibition of cell growth. It is filed as functional, cell-based.
Experiment [1] deals with K562. Description: Antitumor activity against human K562 cells assessed as inhibition of cell growth. It is filed as functional, cell-based.
Experiment [2] has as its system K562. As to the kind of experiment: Induction of apoptosis in human K562 cells assessed as increase in cleaved caspase-3 expression by Western blot analysis. The experiment is classed as functional, cell-based. Particulars: dose 2.5-10 µM. Background: Immunoblotting shows a protein as a band on a membrane.
Experiment [3] has as its system K562. As to the kind of experiment: Induction of apoptosis in human K562 cells assessed as increase in caspase-3 expression by Western blot analysis. It is filed as functional, cell-based. Particulars: dose 2.5-10 µM.
In experiment [4] the target is Tyrosine-protein kinase ABL1 (Homo sapiens) (UniProt P00519). Description: Inhibition of ABL1 phosphorylation in human K562 cells at 2.5 to 10 uM by Western blot analysis. The experiment is classed as cell-based. Particulars: dose 2.5-10 µM.
Experiment [5] deals with K562. As to the kind of experiment: Antimigratory activity against human K562 cells assessed as decrease in cell migration at 2.5 to 10 uM. The experiment is classed as functional, cell-based. Conditions: dose 2.5-10 µM.
Experiment [6] concerns the target Crk-like protein (Homo sapiens) (UniProt P46109). Description: Inhibition of CRKL phosphorylation in human K562 cells at 2.5 to 10 uM by Western blot analysis. The experiment is classed as cell-based. Conditions: dose 2.5-10 µM.
Experiment [7] deals with K562. As to the kind of experiment: Induction of apoptosis in human K562 cells assessed as early apoptotic cells at 2.5 uM incubated for 24 hrs by Annexin V-FITC staining based flow cytometric analysis (reference value: 3.90 % ). It is filed as functional. Background: A flow cytometer gives signals particle by particle.
The test system of experiment [8] is K562. As to the kind of experiment: Induction of apoptosis in human K562 cells assessed as viable cells at 5 uM incubated for 24 hrs by Annexin V-FITC staining based flow cytometric analysis (reference value: 93.4 % ). Conditions: read-out: Activity. The experiment is classed as functional.
Experiment [9] deals with K562. As to the kind of experiment: Induction of apoptosis in human K562 cells assessed as late apoptotic cells at 5 uM incubated for 24 hrs by Annexin V-FITC staining based flow cytometric analysis (reference value: 1.82 % ). It is filed as functional.
The subject of experiment [10] is K562. As to the kind of experiment: Induction of apoptosis in human K562 cells assessed as early apoptotic cells at 5 uM incubated for 24 hrs by Annexin V-FITC staining based flow cytometric analysis (reference value: 3.90 % ). The experiment is classed as functional.
The test system of experiment [11] is K562. As to the kind of experiment: Induction of apoptosis in human K562 cells assessed as early apoptotic cells at 10 uM incubated for 24 hrs by Annexin V-FITC staining based flow cytometric analysis (reference value: 3.90 % ). It is filed as functional.
Experiment [12] deals with K562. As to the kind of experiment: Induction of apoptosis in human K562 cells assessed as late apoptotic cells at 2.5 uM incubated for 24 hrs by Annexin V-FITC staining based flow cytometric analysis (reference value: 1.82 % ). It is filed as functional.
In experiment [13] the test system is K562. As to the kind of experiment: Induction of apoptosis in human K562 cells assessed as necrotic cells at 5 uM incubated for 24 hrs by Annexin V-FITC staining based flow cytometric analysis (reference value: 0.82 % ). It is filed as functional.
The test system of experiment [14] is K562. Description: Induction of apoptosis in human K562 cells assessed as necrotic cells at 2.5 uM incubated for 24 hrs by Annexin V-FITC staining based flow cytometric analysis (reference value: 0.82 % ). The experiment is classed as functional.
Experiment [15] deals with K562. As to the kind of experiment: Induction of apoptosis in human K562 cells assessed as necrotic cells at 10 uM incubated for 24 hrs by Annexin V-FITC staining based flow cytometric analysis (reference value: 0.82 % ). The experiment is classed as functional.
The test system of experiment [16] is K562. Description: Induction of apoptosis in human K562 cells assessed as total apoptotic cells at 10 uM incubated for 24 hrs by Annexin V-FITC staining based flow cytometric analysis (reference value: 5.72 % ). The experiment is classed as functional.
In experiment [17] the test system is K562. As to the kind of experiment: Induction of apoptosis in human K562 cells assessed as late apoptotic cells at 10 uM incubated for 24 hrs by Annexin V-FITC staining based flow cytometric analysis (reference value: 1.82 % ). The experiment is classed as functional.
Experiment [18] concerns K562. Description: Induction of apoptosis in human K562 cells assessed as viable cells at 10 uM incubated for 24 hrs by Annexin V-FITC staining based flow cytometric analysis (reference value: 93.4 % ). It is filed as functional. Particulars: read-out: Activity.
Experiment [19] relates to K562. As to the kind of experiment: Induction of apoptosis in human K562 cells assessed as viable cells at 2.5 uM incubated for 24 hrs by Annexin V-FITC staining based flow cytometric analysis (reference value: 93.4 % ). It is filed as functional. Particulars: read-out: Activity.

Sequence of Tyrosine-protein kinase ABL1 (Homo sapiens) (P00519 whole entry): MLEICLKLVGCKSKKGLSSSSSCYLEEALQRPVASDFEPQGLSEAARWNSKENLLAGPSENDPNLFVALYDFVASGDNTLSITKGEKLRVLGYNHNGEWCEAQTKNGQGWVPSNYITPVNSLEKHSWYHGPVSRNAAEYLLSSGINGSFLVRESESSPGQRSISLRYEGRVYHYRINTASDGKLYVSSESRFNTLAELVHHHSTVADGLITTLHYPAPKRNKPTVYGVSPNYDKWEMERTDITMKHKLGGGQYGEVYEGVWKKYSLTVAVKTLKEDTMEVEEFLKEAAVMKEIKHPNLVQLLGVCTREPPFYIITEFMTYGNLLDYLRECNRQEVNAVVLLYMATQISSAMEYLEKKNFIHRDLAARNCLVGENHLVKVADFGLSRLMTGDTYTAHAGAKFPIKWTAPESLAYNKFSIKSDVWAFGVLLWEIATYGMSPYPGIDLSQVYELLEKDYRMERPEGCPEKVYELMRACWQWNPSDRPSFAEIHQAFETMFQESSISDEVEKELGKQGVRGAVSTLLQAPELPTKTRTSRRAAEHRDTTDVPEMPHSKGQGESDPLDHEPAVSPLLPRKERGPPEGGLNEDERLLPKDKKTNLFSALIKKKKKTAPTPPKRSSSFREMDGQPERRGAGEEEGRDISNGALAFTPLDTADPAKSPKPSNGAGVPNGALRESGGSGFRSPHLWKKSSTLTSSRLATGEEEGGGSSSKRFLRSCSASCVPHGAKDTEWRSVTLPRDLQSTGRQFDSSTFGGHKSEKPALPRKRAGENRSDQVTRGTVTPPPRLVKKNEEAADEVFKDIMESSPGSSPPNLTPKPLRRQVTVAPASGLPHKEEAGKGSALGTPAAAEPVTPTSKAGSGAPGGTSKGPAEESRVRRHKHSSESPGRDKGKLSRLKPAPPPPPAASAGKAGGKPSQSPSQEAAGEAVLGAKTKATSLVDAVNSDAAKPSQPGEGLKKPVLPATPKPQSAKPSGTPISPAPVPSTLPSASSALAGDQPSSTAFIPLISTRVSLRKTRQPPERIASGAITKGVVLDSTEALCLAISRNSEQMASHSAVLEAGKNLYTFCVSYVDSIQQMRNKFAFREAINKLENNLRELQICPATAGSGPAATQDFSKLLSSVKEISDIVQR
Sequence of Crk-like protein (Homo sapiens) (P46109 whole entry): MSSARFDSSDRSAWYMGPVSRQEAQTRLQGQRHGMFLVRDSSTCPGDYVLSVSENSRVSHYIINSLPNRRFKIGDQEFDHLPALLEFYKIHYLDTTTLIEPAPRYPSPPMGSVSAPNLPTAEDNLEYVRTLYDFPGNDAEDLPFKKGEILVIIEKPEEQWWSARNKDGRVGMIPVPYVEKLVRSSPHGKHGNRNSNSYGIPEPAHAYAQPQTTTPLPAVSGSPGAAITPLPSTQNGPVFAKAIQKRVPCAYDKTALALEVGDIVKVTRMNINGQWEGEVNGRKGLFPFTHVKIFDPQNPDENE

`CCN1CCN(Cc2ccc(C(=O)Nc3cc(-n4cnc(C)c4)cc(C(F)(F)F)c3)cc2)CC1`: the results for the 50% inhibitory concentration (IC50) in the experiment on HL-60, in the experiment on MCF7 and in the experiment on K562 [1] were 17.2 µM, > 50 µM and 13.3 µM, respectively.

Turning to `Cc1cn(-c2cc(NC(=O)c3ccc(CN4CC(C)OC(C)C4)cc3)cc(C(F)(F)F)c2)cn1` (stereo unspecified), the IC50 stood at 22.1 µM in the experiment with HL-60, 40.6 µM in the experiment on MCF7 and 13.2 µM with K562 [1].

As to `COc1ccc(NC(=O)c2ccc(CN3CCN(C)CC3)cc2)cc1-n1cc(C)nc1C`, the IC50 with HL-60 was determined as 23.4 µM; in the experiment on MCF7, 29.1 µM; in the experiment with K562 [1], 31.4 µM.

For the molecule `CCCCN1CCN(Cc2ccc(C(=O)Nc3ccc(C)c(-n4cnc(C)c4)c3)cc2)CC1`, the IC50 in the experiment with HL-60 is > 50 µM; with MCF7 it was > 50 µM; in the experiment on K562 [1], 33.2 µM.

With `Cc1cn(-c2cc(NC(=O)c3ccc(CN4CCN(C)CC4)cc3)cc(C(F)(F)F)c2)cn1`, the IC50 was 21.2 µM in the experiment with HL-60, 19 µM with MCF7 and 13.6 µM with K562 [1].

On to `CCCCN1CCN(Cc2ccc(C(=O)Nc3cc(-n4cnc(C)c4)cc(C(F)(F)F)c3)cc2)CC1`, for which the results for the IC50 in the experiment on HL-60, with MCF7 and with K562 [1] were 17.9 µM, 20.1 µM and 6.03 µM, respectively. Also, the Activity entry in the experiment on K562 [2] and in the experiment on K562 [3] was “Dose-Dependent Effect” in each case. In addition, the inhibition result in experiment [4] and in experiment [6] was “Active” each time. Moreover, the result with K562 [5] was Active.

Take `Cc1cn(-c2cc(NC(=O)c3ccc(CN4CCN(C(C)(C)C)CC4)cc3)cc(C(F)(F)F)c2)cn1`: the 50% inhibitory concentration (IC50) in the experiment with HL-60 was found to be 16.8 µM; in the experiment with MCF7, 23.5 µM; with K562 [1], 5.66 µM. Moreover, the Activity in the experiment on K562 [7] is 1.9%; in the experiment with K562 [2], “Dose-Dependent Effect”; in the experiment on K562 [9], 22.68%; in the experiment with K562 [10], 2.8%; with K562 [3], “Dose-Dependent Effect”; in the experiment on K562 [11] it was 3.02%. Further, the Activity with K562 [12] is 10.84%; in the experiment on K562 [13], 3.44%; with K562 [14] it was 1%; with K562 [15], 4.56%; in the experiment on K562 [16] it was 37.58%; in the experiment on K562 [17], 34.56%. For the same molecule, the viability at 5 µM in the experiment with K562 [8] was 71.1%. Besides, the inhibition result in experiment [4] and in experiment [6] was “Active” each time. Moreover, the result in the experiment on K562 [5] was Active. Besides, the viability at 10 µM in the experiment on K562 [18] worked out at 57.9%. Also, the viability at 2.5 µM in the experiment with K562 [19] was found to be 86.3%.

`Cc1cn(-c2cc(NC(=O)c3ccc(CN4CCN(C)CC4)cc3)ccc2C)cn1`: the IC50 in the experiment on HL-60 is > 50 µM; in the experiment with MCF7, > 50 µM; in the experiment on K562 [1], 39.7 µM.

For the molecule `Cc1cn(-c2cc(NC(=O)c3ccc(CN4CCOC(C)C4)cc3)cc(C(F)(F)F)c2)cn1` (stereo unspecified), the IC50 is 25.8 µM with HL-60, > 50 µM in the experiment on MCF7 and 16.8 µM with K562 [1].

Consider `CN1CCN(Cc2ccc(C(=O)Nc3cc(-n4cnc(C#N)c4)cc(C(F)(F)F)c3)cc2)CC1`, for which the values for the IC50 with HL-60, in the experiment on MCF7 and in the experiment on K562 [1] were 18.6 µM, 15.6 µM and 13.3 µM, respectively.

In the case of `Cc1cn(-c2cc(NC(=O)c3ccc(CN4CCCC4)cc3)cc(C(F)(F)F)c2)cn1`, the IC50 in the experiment with HL-60 is 24.9 µM; in the experiment on MCF7, 37.9 µM; in the experiment with K562 [1], 13.4 µM.

Consider `Cc1ccc(NC(=O)c2ccc(CN3CCN(C)CC3)cc2)cc1Nc1nccc(-c2cccnc2)n1` [IMATINIB], for which the IC50 was found to be 17.2 µM in the experiment with HL-60, 25.6 µM with MCF7 and 14 µM in the experiment on K562 [1]. The Activity in the experiment with K562 [11] turned out to be 4.9%; in the experiment with K562 [15] it was 0.2%; in the experiment on K562 [16], 23.1%; with K562 [17] it was 18.2%. The viability at 10 µM with K562 [18] was found to be 76.7%.

Turning to `Cc1cn(-c2cc(NC(=O)c3ccc(CN4CCN(C(=O)C5CC5)CC4)cc3)cc(C(F)(F)F)c2)cn1`, the figures for the IC50 with HL-60, in the experiment on MCF7 and with K562 [1] were 13.3 µM, > 50 µM and 14.5 µM, respectively.

In the case of `CC(=O)N1CCN(Cc2ccc(C(=O)Nc3cc(-n4cnc(C)c4)cc(C(F)(F)F)c3)cc2)CC1`, the 50% inhibitory concentration (IC50) in the experiment on HL-60, in the experiment with MCF7 and in the experiment with K562 [1] was > 50 µM throughout.

Consider `CCCCN1CCN(Cc2ccc(C(=O)Nc3cc(-n4ccnc4)cc(C(F)(F)F)c3)cc2)CC1`, for which the IC50 was found to be 34.9 µM in the experiment on HL-60, 30.2 µM in the experiment with MCF7 and 22.4 µM in the experiment with K562 [1].

On to `Cc1cn(-c2cccc(NC(=O)c3ccc(CN4CCN(C)CC4)cc3)c2)c(C)n1`, for which the IC50 is 36 µM in the experiment on HL-60, > 50 µM with MCF7 and 15.8 µM in the experiment with K562 [1].

`Cc1cn(-c2cc(NC(=O)c3ccc(CN4CCN(C(C)C)CC4)cc3)cc(C(F)(F)F)c2)cn1`: the concentration for half-maximal inhibition (IC50) is 14.8 µM in the experiment on HL-60, 13.1 µM in the experiment with MCF7 and 10.5 µM in the experiment with K562 [1].

With `Cc1cn(-c2cc(NC(=O)c3ccc(CN4CCOC[C@@H]4C)cc3)cc(C(F)(F)F)c2)cn1`, the IC50 is 16.9 µM in the experiment with HL-60, 24.2 µM in the experiment with MCF7 and 24.1 µM with K562 [1].

For the molecule `CN1CCN(Cc2ccc(C(=O)Nc3cc(-n4ccnc4)cc(C(F)(F)F)c3)cc2)CC1`, the IC50 in the experiment on HL-60 amounted to 18.8 µM; in the experiment on MCF7, 29 µM; in the experiment with K562 [1], 15.4 µM.

For the molecule `Cc1cn(-c2cc(NC(=O)c3ccc(CN4CCN(C)CC4)cc3)cc(C(F)(F)F)c2)c(C)n1`, the values for the IC50 in the experiment with HL-60, with MCF7 and in the experiment on K562 [1] were 17 µM, 9.61 µM and 10.8 µM, respectively.

Take `Cc1cn(-c2cc(NC(=O)c3ccc(CN4CCOCC4)cc3)cc(C(F)(F)F)c2)cn1`: the IC50 in the experiment with HL-60 is > 50 µM; in the experiment on MCF7, > 50 µM; with K562 [1] it was 23.6 µM.
